From paper PMC10199020 (Nature Communications, 2023)
Bridge positions count the residues as written; N and C are the ends. Square brackets hold non-standard residues; d marks the D form. Peptide text beside a SMILES is read from it. * marks the point of attachment. 5TAMRA = CN(C)c1ccc2c(c1)Oc1cc(N(C)C)ccc1C21OC(=O)c2cc(C(=O)*)ccc21; 2Nal = N[C@@H](Cc1ccc2ccccc2c1)C(=O)O; Pen = CC(C)(S)[C@H](N)C(=O)O; Aib = CC(C)(N)C(=O)O

How the values were obtained:
NL-IL23R with IL12Rβ1 = molecular target: T1, NL-IL23R with IL12Rβ1 (Homo sapiens, UniProt P42701+Q5VWK5); test: P630-TMR NanoBRET binding assay, NL-IL23R with IL12Rβ1; conditions: for BRET ratio, Specific (Mean) / BRET ratio, Non-specific (Mean): Fig. 2d, NL-IL23R with IL12Rβ1; for BRET ratio, Non-specific (Mean): with 10 μM P630; for BRET ratio with non-specific binding subtracted (Mean): Figure 2 sheet Panel f; for BRET ratio with non-specific binding subtracted (Mean) / % maximum BRET ratio / % of P630-TMR specific Bmax (Mean): NL-IL23R + IL12RB1; for % maximum BRET ratio / % of P630-TMR specific Bmax (Mean): Figure 2 sheet Panel g, Fig. 3d; for Mean NanoBRET binding signal (Figure 7 panel b): NL-IL23R +IL12RB1
T1 construct: expressed in transfected cells; host or cells: HEK293T (ATCC CRL-3216), transient transfection
Text: (§1) A standard curve was used to predict the expression level of NanoLuc labelled receptor in each experiment (Supplementary Fig. 1).
(§2) Fig. 2 Creation and characterisation of a fluorescent cyclic peptide probe for IL23R. […] Data are normally mean ± SEM from five independent experiments. Details on absolute number of data points included for each concentration are provided in the associated Source Data file. In each individual saturation experiment triplicate determinations were normally made for total binding and duplicate measurements were made for non-specific binding.
(§3) Media was removed from white 96-well microplates containing transfected cells and replaced with fluoroprobe in the presence or absence of antagonist in 50 μL Hanks Balanced Salt Solution (HBSS) with 1 mg/mL BSA (Merck). After a 1-hour incubation at 37 °C without CO2, 5 μL of HBSS containing 77 μM furimizine was added to each well (final concentration 7 μM), the plate incubated for 5-minutes and the BRET signal measured using a PheraStar FS plate reader (BMG Labtech; data acquisition software version 5.41; MARS analysis software version 3.32) with a 450 ± 30 nm and >550 nm long pass filters.
(§4) Ligand binding data were fitted with the equation:2 BRETratio=Bmax[A]/([A]+KD)+(BA+C). Where ‘Bmax’ is the maximum specific binding BRET signal, ‘[A]’ is fluorescent probe concentration, ‘B’ is the non-specific binding component’s slope and ‘C’ is the Y intercept.
(§5) Specific binding data was generated by subtracting the BRET values gained in the presence of an excess of unlabelled probe from the BRET ratios gained in the absence of unlabelled probe. Specific binding data were fit using the equation:3 Y=Bmax[B]/(B+KD) where ‘Bmax’ is the maximum specific binding signal of the curve and ‘[B]’ is the concentration of fluorescent probe.

NL-IL12Rβ1 with IL23R = molecular target: T2, NL-IL12Rβ1 with IL23R (Homo sapiens, UniProt Q5VWK5); test: P630-TMR NanoBRET binding assay, NL-IL12Rβ1 with IL23R; conditions: Fig. 2e, NL-IL12Rβ1 and IL23R
T2 construct: untagged full-length IL23R could be measured in the membranes of living cells; expressed in transfected cells; host or cells: HEK293T, transient transfection
Text: as §1, §2, §3, §4, §5

T1 sequence (Q5VWK5 24-629, other chains not shown): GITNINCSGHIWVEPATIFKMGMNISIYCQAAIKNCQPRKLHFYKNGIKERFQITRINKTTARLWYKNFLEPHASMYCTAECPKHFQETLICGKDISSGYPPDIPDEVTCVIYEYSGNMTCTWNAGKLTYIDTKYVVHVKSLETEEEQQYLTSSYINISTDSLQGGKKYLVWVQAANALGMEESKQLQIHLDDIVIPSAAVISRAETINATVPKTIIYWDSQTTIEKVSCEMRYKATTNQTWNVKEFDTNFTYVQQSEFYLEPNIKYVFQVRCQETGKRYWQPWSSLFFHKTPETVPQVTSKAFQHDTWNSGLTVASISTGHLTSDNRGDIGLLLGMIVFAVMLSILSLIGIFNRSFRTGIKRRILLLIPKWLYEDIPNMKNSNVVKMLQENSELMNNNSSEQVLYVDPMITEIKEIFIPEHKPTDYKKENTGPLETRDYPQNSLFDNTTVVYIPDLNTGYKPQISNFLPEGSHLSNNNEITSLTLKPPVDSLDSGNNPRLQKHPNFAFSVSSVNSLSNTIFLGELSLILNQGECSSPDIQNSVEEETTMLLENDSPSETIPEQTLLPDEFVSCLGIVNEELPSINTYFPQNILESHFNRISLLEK
T2 sequence (Q5VWK5 24-629, other chains not shown): as above

- BRET ratio, Specific (Mean) (NL-IL23R with IL12Rβ1; P630-TMR 0.457247 nM): 0.2512
- BRET ratio, Specific (Mean) (NL-IL23R with IL12Rβ1; P630-TMR 1.37174 nM): 0.271
- BRET ratio, Specific (Mean) (NL-IL23R with IL12Rβ1; P630-TMR 4.11523 nM): 0.315
- BRET ratio, Specific (Mean) (NL-IL23R with IL12Rβ1; P630-TMR 12.3457 nM): 0.4472
- BRET ratio, Specific (Mean) (NL-IL23R with IL12Rβ1; P630-TMR 37.037 nM): 0.6615
- BRET ratio, Specific (Mean) (NL-IL23R with IL12Rβ1; P630-TMR 111.111 nM): 1.003
- BRET ratio, Specific (Mean) (NL-IL23R with IL12Rβ1; P630-TMR 1000 nM): 1.323
- BRET ratio, Specific (Mean) (NL-IL23R with IL12Rβ1; P630-TMR 3000 nM): 1.6368
- BRET ratio, Non-specific (Mean) (NL-IL23R with IL12Rβ1; P630-TMR 0.457247 nM): 0.2426
- BRET ratio, Non-specific (Mean) (NL-IL23R with IL12Rβ1; P630-TMR 1.37174 nM): 0.2389
- BRET ratio, Non-specific (Mean) (NL-IL23R with IL12Rβ1; P630-TMR 4.11523 nM): 0.241
- BRET ratio, Non-specific (Mean) (NL-IL23R with IL12Rβ1; P630-TMR 12.3457 nM): 0.2439
- BRET ratio, Non-specific (Mean) (NL-IL23R with IL12Rβ1; P630-TMR 37.037 nM): 0.2477
- BRET ratio, Non-specific (Mean) (NL-IL23R with IL12Rβ1; P630-TMR 111.111 nM): 0.2531
- BRET ratio, Non-specific (Mean) (NL-IL23R with IL12Rβ1; P630-TMR 1000 nM): 0.3233
- BRET ratio, Non-specific (Mean) (NL-IL23R with IL12Rβ1; P630-TMR 3000 nM): 0.4914
- BRET ratio, Non-specific (Mean) (NL-IL23R with IL12Rβ1; P630-TMR […]): 0.2709
- BRET ratio with non-specific binding subtracted (Mean) (NL-IL23R with IL12Rβ1; P630-TMR 0.457247 nM): 0.01279
- BRET ratio with non-specific binding subtracted (Mean) (NL-IL23R with IL12Rβ1; P630-TMR 1.37174 nM): 0.03163
- BRET ratio with non-specific binding subtracted (Mean) (NL-IL23R with IL12Rβ1; P630-TMR 4.11523 nM): 0.07414
- BRET ratio with non-specific binding subtracted (Mean) (NL-IL23R with IL12Rβ1; P630-TMR 12.3457 nM): 0.203
- BRET ratio with non-specific binding subtracted (Mean) (NL-IL23R with IL12Rβ1; P630-TMR 37.037 nM): 0.4147
- BRET ratio with non-specific binding subtracted (Mean) (NL-IL23R with IL12Rβ1; P630-TMR 111.111 nM): 0.7498
- BRET ratio with non-specific binding subtracted (Mean) (NL-IL23R with IL12Rβ1; P630-TMR 1000 nM): 1.0032
- BRET ratio with non-specific binding subtracted (Mean) (NL-IL23R with IL12Rβ1; P630-TMR 3000 nM): 1.107
- % maximum BRET ratio / % of P630-TMR specific Bmax (Mean) (NL-IL23R with IL12Rβ1; P630-TMR 0.457247 nM): 1.58%
- % maximum BRET ratio / % of P630-TMR specific Bmax (Mean) (NL-IL23R with IL12Rβ1; P630-TMR 1.37174 nM): 3.558%
- % maximum BRET ratio / % of P630-TMR specific Bmax (Mean) (NL-IL23R with IL12Rβ1; P630-TMR 4.11523 nM): 8.249%
- % maximum BRET ratio / % of P630-TMR specific Bmax (Mean) (NL-IL23R with IL12Rβ1; P630-TMR 12.3457 nM): 22.4565%
- % maximum BRET ratio / % of P630-TMR specific Bmax (Mean) (NL-IL23R with IL12Rβ1; P630-TMR 37.037 nM): 45.1459%
- % maximum BRET ratio / % of P630-TMR specific Bmax (Mean) (NL-IL23R with IL12Rβ1; P630-TMR 111.111 nM): 80.9844%
- % maximum BRET ratio / % of P630-TMR specific Bmax (Mean) (NL-IL23R with IL12Rβ1; P630-TMR 1000 nM): 106.516%
- % maximum BRET ratio / % of P630-TMR specific Bmax (Mean) (NL-IL23R with IL12Rβ1; P630-TMR 3000 nM): 100.024%
- Mean NanoBRET binding signal (Figure 7 panel b) (NL-IL23R with IL12Rβ1; [P630-TMR] 0.8 nM): -0.0001896
- Mean NanoBRET binding signal (Figure 7 panel b) (NL-IL23R with IL12Rβ1; [P630-TMR] 4 nM): 0.1611
- Mean NanoBRET binding signal (Figure 7 panel b) (NL-IL23R with IL12Rβ1; [P630-TMR] 20 nM): 0.6859
- Mean NanoBRET binding signal (Figure 7 panel b) (NL-IL23R with IL12Rβ1; [P630-TMR] 100 nM): 1.691
- Mean NanoBRET binding signal (Figure 7 panel b) (NL-IL23R with IL12Rβ1; [P630-TMR] 500 nM): 2.556
- Mean NanoBRET binding signal (Figure 7 panel b) (NL-IL23R with IL12Rβ1; [P630-TMR] 2000 nM): 2.7354
- Kd (NL-IL23R with IL12Rβ1; NL-IL23R and IL12Rβ1, mean ± SEM): 0.0511 ± 0.0073 µM
- BRET ratio, Specific (Mean) (NL-IL12Rβ1 with IL23R; P630-TMR 0.457247 nM): 0.2494
- BRET ratio, Specific (Mean) (NL-IL12Rβ1 with IL23R; P630-TMR 1.37174 nM): 0.2506
- BRET ratio, Specific (Mean) (NL-IL12Rβ1 with IL23R; P630-TMR 4.11523 nM): 0.2544
- BRET ratio, Specific (Mean) (NL-IL12Rβ1 with IL23R; P630-TMR 12.3457 nM): 0.2565
- BRET ratio, Specific (Mean) (NL-IL12Rβ1 with IL23R; P630-TMR 37.037 nM): 0.2604
SMILES: COc1ccc(C[C@H](NC(=O)[C@H]2NC(=O)[C@H](CCC(N)=O)NC(=O)[C@H](Cc3c[nH]c4ccccc34)NC(=O)[C@H]([C@@H](C)O)NC(=O)[C@H](CC(N)=O)NC(=O)[C@@H](NC(C)=O)C(C)(C)SSC2(C)C)C(=O)N[C@@H](Cc2ccc3ccccc3c2)C(=O)NC(C)(C)C(=O)N[C@@H](CCC(=O)O)C(=O)N[C@@H](CC(N)=O)C(=O)N[C@@H](CC(N)=O)C(=O)N[C@@H](CCCCNC(=O)c2ccc3c(c2)C(=O)OC32c3ccc(N(C)C)cc3Oc3cc(N(C)C)ccc32)C(N)=O)cc1 [P630-TMR] (Ac-[Pen]NTWQ[Pen]Y(Me)[2Nal][Aib]ENNK(5TAMRA)-NH2; disulfide 1-6)
